Reference: patent publication US4127722A, “Benzhydrylsulphinyl derivatives” (Laboratoire L. Lafon, priority 1975, dated 1978)

Experiments:
passes which entail pain [1] = conditions: mentioned for comparison; cited from earlier work
[2] = at doses close to the toxic dose; mentioned for comparison; cited from earlier work
mice [3] = test: Toxicity, intraperitoneal administration, mice; type: in vivo; conditions: intraperitoneal administration
mice [4] = test: General behaviour, mice; type: in vivo; conditions: mice
rats = test: General behaviour, rats; type: in vivo
spontaneous motility = test: Spontaneous motility (actimetry); type: in vivo, mice; conditions: mice
Description: CRL 40,028 increases the motor activity of the animals from a dose of 16 mg/kg onwards. As this effect is representative of the activity of CRL 40,028, attempts have been made to obtain its kinetics more precisely. […]

central nervous system = test: Pharmacological tests: action on the central nervous system, overall profile; type: in vivo; conditions: for action on the central nervous system: in words
Description: The results of the pharmacological tests which were carried out have been summarised below.

[5] = test system: hypothermia, trembling and peripheral cholinergic symptoms brought about by oxotremorine; test: Interaction with oxotremorine; type: in vivo, mice; conditions: for effect towards oxotremorine: in words
Description: Mice (6 per dose) are given an intraperitoneal injection of 0.5 mg/kg of oxotremorine 30 minutes after the administration of CRL 40,028.

[6] = test system: stereotype behaviour induced by amphetamine; test: Interaction with amphetamine; type: in vivo, rats; conditions: for duration of the stereotypies brought about by amphetamine: rat, in vivo; for boosting of stereotypies produced by amphetamine-type compounds: in words
Description: Amphetamine (2 mg/kg, given intraperitoneally) is injected 30 minutes after the administration of CRL 40,028 (6 rats/dose).

residual motility = test: Residual motility; type: in vivo, mice
[7] = test system: hypothermia and ptosis produced by reserpine; test: Interaction with reserpine; type: in vivo, mice
Description: Batches of 6 mice are given an intraperitoneal injection of reserpine (2.5 mg/kg) 4 hours before the administration of CRL 40,028.

groups of mice = test: Group toxicity; conditions: Table IV, graded symbols
[8] = test system: convulsive effects of the electric shock; test: Electric shock; type: in vivo, mice
Description: (§1) The test is carried out on batches of 20 mice, 30 minutes after the administration of CRL 40,028.

[9] = General behaviour / psychopharmacological spectrum (species not stated); type: in vivo; conditions: for mydriatic effect: in words
passes which entail pain [10] = test: Four plate test; type: in vivo, mice; conditions: in words
Description: as §1

[11] = at medium doses, very moderate intensity

## CN(C)CCC=C1c2ccccc2CCc2ccccc21 [amitriptyline]
Passes which entail pain [1]
  effect in the four plate test (comparison drug): a certain effect in the four plate test
[2]
  sedation (comparison drug): not

## O=C(CC[S+]([O-])C(c1ccccc1)c1ccccc1)NO (stereo not shown) [CRL 40,260, 3-(Benzhydrylsulphinyl)-propionohydroxamic acid]
Mice [3]
  LD-O: greater than 1,024 mg/kg
  toxicity in words: low toxicity
Mice [4]
  hyper-reactivity: a hyper-reactivity
  sedation, with hypomotility: a sedation, with hypomotility
rats
  hyper-reactivity: a hyper-reactivity
  sedation, with hypomotility: a sedation, with hypomotility
Spontaneous motility
  spontaneous motility: a reduction in the spontaneous motility

## Cl.[O-][S+](CCN1CCCCC1)C(c1ccccc1)c1ccccc1 (stereo not shown) [CRL 40,222, N-[2-(Benzhydrylsulphinyl)-ethyl]-piperidine hydrochloride]
Mice [3]
  LD-O: greater than 128 mg/kg
Central nervous system
  action on the central nervous system: acts on the central nervous system
[5]
  effect towards oxotremorine: a moderate action towards oxotremorine
[6]
  duration of the stereotypies brought about by amphetamine: an increase in the duration of the stereotypies
Spontaneous motility; only at a low dose of 1 mg/kg
  spontaneous motility: an increase in the spontaneous motility
Residual motility; mice, 8 mg/kg
  residual motility: a stimulation of the residual motility
[7]; in words
  anti-reserpine effect: absence of an anti-reserpine effect

## Cn1c(=O)c2c(ncn2C)n(C)c1=O [Caffeine, reference compound]
[5]; Table IV, graded symbols
  Anti-oxotremorine action (peripheral): 0
  Anti-oxotremorine action (trembling): 0
Groups of mice
  Group toxicity: 0
[7]; Table IV, graded symbols
  Anti-reserpine action (ptosis): 0

## CN(C)CCCN1c2ccccc2CCc2ccccc21 [imipramine]
Passes which entail pain [1]
  effect in the four plate test (comparison drug): a certain effect in the four plate test

## Cl.[O-][S+](CCN1CCOCC1)C(c1ccccc1)c1ccccc1 (stereo not shown) [CRL 40,221, N-[2-(Benzhydrylsulphinyl)-ethyl]-morpholine hydrochloride]
Mice [3]
  LD-O: greater than 512 mg/kg
Central nervous system; comparison with tricyclic anti-depressants
  psychopharmacological spectrum: close to that of tricyclic anti-depressants
[8]; in words
  protection against convulsions produced by electric shock: a protection against convulsions
[5]
  effect towards oxotremorine: an anti-oxotremorine effect
[9]; at doses close to the toxic dose
  sedation: a sedation at doses close to the toxic dose
[9]; at high doses
  hypothermia: hypothermia at high doses
[9]
  mydriatic effect: a considerable mydriasis
[6]
  boosting of stereotypies produced by amphetamine-type compounds: a (metabolic) boosting of the stereotypies
Residual motility; mice
  motor activity in mice accustomed to their chamber: a resumption of motor activity
Passes which entail pain [10]
  effect in the four plate test: a certain effect in the four plate test
[7]; in words
  anti-reserpine effect: an anti-reserpine effect

## Cl.NC(CC[S+]([O-])C(c1ccccc1)c1ccccc1)=NO (stereo not shown) [CRL 40,261, 3-(Benzhydrylsulphinyl)-propionamidoxime hydrochloride]
Mice [3]
  LD-O: greater than 256 mg/kg
[5]
  effect towards oxotremorine: moderate effect towards oxotremorine
[6]
  duration of the stereotypies brought about by amphetamine: an increase in the duration of the stereotypies
Spontaneous motility; 2 mg/kg, 8 mg/kg and 32 mg/kg
  spontaneous motility: an increase in the spontaneous motility
[7]; in words
  hypothermia due to reserpine: an increase in the hypothermia due to reserpine
  palpebral ptosis induced by reserpine: without alteration of the palpebral ptosis

## Cl.NC(CCC[S+]([O-])C(c1ccccc1)c1ccccc1)=NO (stereo not shown) [CRL 40,277, 4-(Benzhydrylsulphinyl)-butyramidoxime hydrochloride]
Mice [3]
  LD-O: greater than 512 mg/kg
Central nervous system
  action on the central nervous system: acts on the central nervous system
[8]; at high doses
  lethal effects of the electric shock: an aggravation of the lethal effects of the electric shock
[5]; at high doses
  hypothermic effects of oxotremorine: aggravation of the hypothermic effects
[9]; at high doses
  hypomotility: hypomotility
  hypothermia: hypothermia
[9]; [11]
  hyper-reactivity: hyper-reactivity
[6]; [11]
  boosting of the effect of amphetamine: boosting of the effect of amphetamine
Residual motility; [11]
  residual hypermotility: inconstant residual hypermotility
[7]; at high doses
  hypothermic effects of reserpine: aggravation of the hypothermic effects of reserpine

## O=C(CCC[S+]([O-])C(c1ccccc1)c1ccccc1)NO (stereo not shown) [CRL 40,278, 4-(Benzhydrylsulphinyl)-butyrohydroxamic acid]
Mice [3]
  LD-O: greater than 1,024 mg/kg
Central nervous system
  action on the central nervous system: acts on the central nervous system

## CNCCC=C1c2ccccc2CCc2ccccc21 [nortriptyline]
Passes which entail pain [1]
  effect in the four plate test (comparison drug): not
[2]
  sedation (comparison drug): a sedation at doses close to the toxic dose

## Cl.NC(C[S+]([O-])C(c1ccccc1)c1ccccc1)=NO (stereo not shown) [CRL 40,048, Benzhydrylsulphinylacetamidoxime hydrochloride]
Central nervous system
  action on the central nervous system: acts only on the central nervous system
Mice [4]
  hyper-reactivity to the touch: hyper-reactivity to the touch
[5]
  effect towards oxotremorine: antagonist action on oxotremorine
[9]
  mydriatic effect: absence of a mydriatic effect
[6]
  boosting of stereotypies produced by amphetamine-type compounds: boosts stereotypies produced by amphetamine-type compounds
Solubility in water
  solubility: 100 mg/mL
